From patent publication US20020004518A1, “Method of treating disorders related to protease-activated receptors-induced cell activation” (priority 2000, published 2002)

Legend:
PARs = experiment: Inhibition of platelet aggregation induced by PARs (thrombin-triggered, turbidimetric); format: cell-based
Procedure: A suitable in vitro inhibition assay can be used to preliminarily evaluate a fused pyrazolyl compound's ability to inhibit cell activation induced by PARs, which are pre-activated by thrombin. For example, a platelet suspension in Tyrode's solution can be prepared and incubated with a compound to be tested, thrombin added to trigger platelet aggregation, and the aggregation measured turbidimetrically with a light-transmission aggremometer. In vivo screening can be performed by following procedures well known in the art.
In vitro inhibitory activity of the fused pyrazolyl compounds was preliminarily evaluated by the following method: A platelet suspension in a Tyrode's solution was prepared according to a procedure described by Wu et al., Br. J Pharm., 1995, 116: 1973-1978. The Tyrode's solution had the following composition (mM): NaCl (136.8), KCl (2.8), NaHCO3 (11.9), MgCl2 (1.1), NaH2PO4 (0.33), CaCl2 (1.0), and glucose (11.2). The platelet number in the platelet suspension was adjusted to 4.5×10^8 platelets/mL with the aid of a Coulter Counter (Model ZM). […] Platelet aggregation was measured turbidimetrically with a light-transmission aggremometer. The extent of platelet aggregation was determined at 5 minutes after the addition of thrombin. The percentage of aggregation was calculated by the method described in Teng et al., Biochem. Biophys. […]

[1] = system: platelet activating factors other than PARs; experiment: Effect on platelet activating factors other than PARs; format: cell-based; settings: selectivity versus other platelet activators

Row | SMILES | inhibitory activity on platelet aggregation (PARs; platelet suspension in Tyrode's solution, 3 min preincubation at 37° C., thrombin added, aggregation read at 5 minutes) | effect on platelet activating factors other than PARs [1] | activity relative to several other tested compounds, e.g. 1-benzyl-3-(4′-ethoxycarbonyl)phenyl-indazole (PARs; thrombin-induced platelet aggregation, fold versus other tested compounds) | melting point [°C]
1 | CCN(CC)Cc1ccc(-c2nn(Cc3ccccc3)c3ccccc23)o1 [Example 17, 1-benzyl-3-(5′-diethylaminomethyl-2′-furyl)indazole] | much higher activity |  |  | 
2 | CCOC(=O)c1cccc(-c2nn(Cc3ccccc3)c3ccccc23)c1 [Example 19, 1-benzyl-3-(3′-ethoxycarbonylphenyl)indazole] |  | little or no effect | at least 10 times | 85 to 86
3 | O=C(O)c1ccc(-c2nn(Cc3ccccc3)c3ccccc23)cc1 [Example 20, 1-benzyl-3-(4′-hydroxycarbonylphenyl)indazole] |  |  |  | 205 to 207
4 | O=C(O)c1cccc(-c2nn(Cc3ccccc3)c3ccccc23)c1 [Example 21, 1-benzyl-3-(3′-hydroxycarbonylphenyl)indazole] |  |  |  | 190 to 192
5 | OCc1ccc(-c2nn(Cc3ccccc3)c3ccccc23)cc1 [Example 22, 1-benzyl-3-(4′-hydroxymethylphenyl)indazole] |  |  |  | 110 to 112
